Columns and labels:
[1] = Stability of β-ketoacid substrates (decarboxylation, 1H-NMR or SPE-MS/MS); assay type: physicochemical
Procedure: To assess rates of decarboxylation under conditions relevant to storage, biochemical assays, and cellular assays, we investigated the stability of eponemycin-based β-ketoacids 11a and 11c under a variety of conditions as shown in below Table C.
For samples stored neat, β-ketoacid 11 (lyophilized powder) was aliquoted into 1.5-2 mg samples in glass vials and placed under Ar. Samples were stored on the bench top (20-25° C.), in at 4° C. refrigerator or in a −20° C. freezer. At each time point, an entire aliquot was dissolved in CD3OD (600 μL) analyzed by ^1H-NMR for decarboxylation to the corresponding isopropyl ketone byproduct 22. The degree of decarboxylation was determined by comparing integrations of two singlet peaks at 1.40 and 1.33 ppm, arising from the α,α-dimethyl groups in the β-ketoacid 11, to two doublet peaks at 1.09 and 1.06 ppm, arising from the isopropyl methyl groups in the decarboxylation product 22. A septuplet corresponding to the methine proton of the isopropyl group was also observed at 2.91 ppm.
For samples stored in PBS, aliquots of β-ketoacid 11 were dissolved in deuterated PBS (600 μL) and incubated in a 37° C. shaking incubator. At each time point, one aliquot was removed and analyzed by ^1H-NMR as above. NMR changes observed in deuterated PBS were similar to those observed in CD3OD above.
For samples stored in RPMI, β-ketoacid 11 (lyophilized powder) was dissolved in EtOH to a working stock concentration of 20 mM. The sample was diluted in RPMI to 100 μM (1000 μL) and incubated at 37° C. At each time point, an aliquot (50 μL) was removed from the master sample, transferred to a 96-well plate, quenched with 4 vol MeOH, centrifuged at 4,000 g to precipitate debris, and immediately analyzed by SPE-MS/MS to quantitate β-ketoacid 11 remaining.

EpnF = EpnF (Streptomyces hygroscopicus, UniProt V5RMU9); experiment: Enzyme kinetic analysis by SPE-MS/MS assay; assay type: biochemical; conditions: relative to 11n
Procedure: SPE-MS/MS analyses were carried out on an Agilent RapidFire 365 High-Throughput Mass Spectrometry System with 6495 triple quadrupole mass spectrometer. Determination of initial velocity: EpnF stock at 100 μM was diluted 10-fold in EpnF Buffer to a 10 μM working solution, which was further diluted to 8 concentrations (10-0.005 μM) in EpnF Buffer (intermediate volume 1350 μL, concentrations calculated for 1500 μL theoretical final volume corresponding to addition of substrate solutions below). The 8 EpnF enzyme dilutions were aliquoted (90 μL) into the corresponding 8 tubes of PCR tube strips (12 strips, one per time point; Thermo Scientific, AB-2000). The β-ketoacid 11 (20 mM in EtOH) was diluted to 10 μM in EpnF Buffer, then 10 μL of this solution was added to each of the tubes (1 μM final concentration, 100 μL final volume) to initiate the reaction. Samples were incubated in a heated shaker at 37° C. and 225 rpm for up to 120 min, and one tube strip was removed at each time point. Each tube was quenched with 5% formic acid in EpnF Buffer (100 μL), pipetted vigorously, and flash frozen on dry ice. Samples were thawed then centrifuged to precipitate protein and transferred to a conical-bottom 96-well plate (Thermo Scientific/Nunc, 249944) for SPE-MS/MS analysis. Measurement of Km and Vmax: Using the data from the initial velocity experiments above, an appropriate EpnF enzyme concentration was selected for each β-ketoacid 11 at which the rate of conversion to the epoxyketone 12 remained linear at 10 min (0.50 μM for 11n and 0.05 μM for all other substrates). Each substrate (20 mM in EtOH) was diluted to 1 mM in EpnF Buffer, then diluted to 8 concentrations (100-0.5 μM) in EpnF Buffer (intermediate volume 1350 μL, concentrations calculated for 1500 μL theoretical volume corresponding to addition of enzyme solutions below). The 8 substrate dilutions were aliquoted (90 μL) into the corresponding 8 tubes of PCR tube strips (12 strips, one per time point; Thermo Scientific, AB-2000). The EpnF enzyme stock solution was diluted in EpnF Buffer to the appropriate concentration for each substrate, then 10 μL of this solution was added to each of the tubes (100 μL final volume) to initiate the reaction. For the 0-min time point, 5% formic acid in EpnF Buffer was added to the β-ketoacid substrate before addition of the enzyme. Samples were incubated in a heated shaker at 37° C. and 225 rpm for up to 10 min, and one tube strip was removed at each time point. Each tube was quenched by addition of 5% formic acid in EpnF Buffer (100 μL), pipetted vigorously, and flash frozen on dry ice. Samples were thawed then centrifuged to precipitate proteins and the supernatants were transferred to a conical-bottom 96-well plate (Thermo Scientific/Nunc, 249944) for SPE-MS/MS analysis. Km and Vmax values for each substrate were calculated by Michaelis-Menten analysis. To obtain a quantitative assessment of EpnF substrate specificity, we developed a kinetic assay (10 min) using SPE-MS/MS (solid-phase extraction/triple quadrupole mass spectrometry; Agilent RapidFire 365 with 6495 MS) to enable direct detection of both substrates and products.

EpnF, sequence (V5RMU9 entry or part of it): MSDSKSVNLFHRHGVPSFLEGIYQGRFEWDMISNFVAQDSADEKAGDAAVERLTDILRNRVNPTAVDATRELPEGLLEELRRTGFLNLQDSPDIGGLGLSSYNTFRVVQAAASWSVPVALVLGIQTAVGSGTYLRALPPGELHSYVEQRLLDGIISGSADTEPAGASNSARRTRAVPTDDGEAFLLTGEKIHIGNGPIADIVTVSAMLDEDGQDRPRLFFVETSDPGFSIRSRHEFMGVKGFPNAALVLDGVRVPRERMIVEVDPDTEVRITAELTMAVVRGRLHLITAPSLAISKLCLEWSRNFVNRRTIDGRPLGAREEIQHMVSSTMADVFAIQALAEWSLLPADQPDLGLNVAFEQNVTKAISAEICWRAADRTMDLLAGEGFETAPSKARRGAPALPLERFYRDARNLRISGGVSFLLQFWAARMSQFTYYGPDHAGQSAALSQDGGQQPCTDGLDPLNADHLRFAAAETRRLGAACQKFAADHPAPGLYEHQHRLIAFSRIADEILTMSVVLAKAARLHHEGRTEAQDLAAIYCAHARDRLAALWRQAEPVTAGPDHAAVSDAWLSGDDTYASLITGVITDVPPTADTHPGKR

half-life at 100 μM ([1]; RPMI medium, RPMI, 37° C.): 2.5 h | half-life ([1]; deuterated PBS, PBS, 37° C.): 4.5 h | half-life ([1]; neat lyophilized powder, neat, 4° C.): > 336 h | half-life ([1]; neat lyophilized powder, neat, 25° C.): 120 h | half-life ([1]; neat lyophilized powder, neat, −20° C.): > 336 h | % remaining at last time point ([1]; neat, 4° C.): d (80%) | % remaining at last time point ([1]; neat, −20° C.): d (95%) | converted more efficiently than 11n (EpnF): ≈ 20 fold
Structure (SMILES): CC(C)CCCCC(=O)N[C@@H](CO)C(=O)N[C@@H](CC(C)C)C(=O)C(C)(C)C(=O)O [Compound 11a, (4S)-4-[(2S)-3-Hydroxy-2-(6-methylheptanamido)propanamido]-2,2,6-trimethyl-3-oxoheptanoic acid]
stability / rate of decarboxylation (in words) ([1]; neat at low temperatures, buffer or media at 37° C.): fairly stable when stored neat at low temperatures
